Assay results published in patent US20240122865A1, “Methods of Protecting RNA” (Pfizer Inc., priority 2021, published 2024).
Several values for one entry are separate records, joined by “and”; a condition that tells them apart may be missing. Identical values can stand only once.

Experiments:
[1] = tested on: FgenL mRNA construct; experiment: Size Exclusion Base Hydrolysis Degradation Assay, FgenL; assay type: biochemical, Trichoderma atroviride; details: 25 mM amino acid; for T0 R1 peak area at 250 nm: FgenL 0.1 mg/mL, 50 mM CAPS, T=0, replicate 1; for T2 Avg, peak area as percentage of T=0 / T2 R1 peak area at 250 nm / T10 Avg, peak area as percentage of T=0 / T10 R1 peak area at 250 nm / T24 Avg, peak area as percentage of T=0 / T24 R1 peak area at 250 nm / T0 Avg, peak area as percentage of T=0: FgenL; for T2 Avg, peak area as percentage of T=0 / T2 R1 peak area at 250 nm / T10 Avg, peak area as percentage of T=0 / T10 R1 peak area at 250 nm / T24 Avg, peak area as percentage of T=0 / T24 R1 peak area at 250 nm: 50 mM CAPS pH 11, room temperature; for T2 Avg, peak area as percentage of T=0 / T2 R1 peak area at 250 nm: 2 hrs; for T2 R1 peak area at 250 nm / T10 R1 peak area at 250 nm / T24 R1 peak area at 250 nm: replicate 1; for T10 Avg, peak area as percentage of T=0 / T10 R1 peak area at 250 nm: 10 hrs; for T24 Avg, peak area as percentage of T=0 / T24 R1 peak area at 250 nm: 24 hrs; for T0 Avg, peak area as percentage of T=0: T=0 (reference)
Description: Basic assay procedure: RNA samples were diluted to 1.0 mg/mL in DNAase/RNAase free water. Amino acids were dissolved in water to a stock solution of 100 mM and a solution of 500 mM CAPS pH 11 was used. The two mRNA constructs tested were FgenL and Chi18. Each individual sample volume was 50 μL. To determine the amount of 1 M NaOH needed to adjust the final pH to 11.0 after the addition of all sample components, the sample volume was increased 100 fold (5 mL), the volume of 1 M NaOH recorded and this value was translated back down to the 50 μL sample volume.
The mRNA and amino acid were allowed to incubate for one hour prior to the addition of CAPS pH 11. All steps of the assay were conducted at room temperature.
Degradation reaction: After the CAPS addition, the samples were injected onto the Waters H-Class UPLC system to record the first timepoint, T=O. This resulting chromatogram was processed by integrating the area of absorbance at 250 nm for the mRNA construct. Immediately following this timepoint, the pH was adjusted to 11. Subsequent time points (2 hrs, 10 hrs, and 24 hrs) recorded the Absorbance Units (peak area) at 250 nm as a percentage of the peak area determined at T=O. Integration of the chromatogram for subsequent timepoints was conducted by analyzing the area of absorbance at 250 nm contained within the same time window in which the peak eluted in T=0 for the 100% intact mRNA.

[2] = tested on: FgenL model RNA; assay type: biochemical, Trichoderma atroviride; details: percent protection, pH 11.0, 44° C., 16 hours, n = 2
Description: The ddPCR assays measure RNA integrity by converting intact RNA to cDNA by reverse transcription, then performing digital PCR in thousands of nanoliter-sized droplets for each sample. PCR is performed within each droplet, which allows for more sensitive detection of subtle changes in RNA concentration compared to traditional PCR or qPCR. Additionally, primers/probes specific to the 5′ end of the RNA/cDNA transcript(s) are used to assess fragment integrity—e.g. degraded RNA will have fewer 5′ positive droplets. The BioRad QX200 Droplet Digital PCR System was used for the ddPCR workflow.
Basic assay procedure: RNA samples (Chi18 or FgenL fragments) were diluted to 25 fg/μL or 10 fg/μL, respectively, in 50 mM […] buffer pH 11.0. Amino acid stocks were made up in 50 mM CAPS buffer, pH 11.0 and subsequently re-adjusted to pH 11.0, post solubilization. Amino acid stocks were tested in a dose-response format to determine EC50. An amino acid dilution plate containing a ˜300 mM (or appropriate) top-concentration of amino acid in 50 mM CAPS buffer was serially (half-log) diluted for 10 times. 0.6 μL of this compound dilution plate was spotted into a 96-well PCR plate (Thermo). Sample RNAs were added (6 μL) and incubated with test amino acid as described below.
Degradation reaction: Treated RNAs were incubated for 16 hours at 30° C. for Chi18 samples or 44° C. for FgenL samples. Upon completion of the degradation reaction, cDNA was made from the intact RNA by Reverse Transcription and ddPCR run for each sample (96 well plates). Positive 5′ droplet values were divided by the total accepted droplet values for each sample and a ratio value generated for each sample.
EC50 was determined by using a four parameter logistic equation: Y=A+((B−A)/(1+(C/X)D)); where Y is percent protection, X is compound concentration, A and B are minimum and maximum asymptotes, respectively, C is EC50, and D is Hill slope.

Structure (SMILES)	T0 R1 peak area at 250 nm [1]	T2 Avg, peak area as percentage of T=0 [1] [%]	T2 R1 peak area at 250 nm [1]	T10 Avg, peak area as percentage of T=0 [1] [%]	T10 R1 peak area at 250 nm [1]	T24 Avg, peak area as percentage of T=0 [1] [%]	T24 R1 peak area at 250 nm [1]	T0 Avg, peak area as percentage of T=0 [1] [%]	EC50 [2] [mM]	T0 R1 peak area at 250 nm ([1]; listed as Cys)	T2 R1 peak area at 250 nm ([1]; listed as Cys)	T2 Avg, peak area as percentage of T=0 ([1]; listed as Cys)	T10 R1 peak area at 250 nm ([1]; listed as Cys)	T10 Avg, peak area as percentage of T=0 ([1]; listed as Cys)
C[C@H](N)C(=O)O [Alanine]	17478	44.3	7051	0.0	0	0.0	0	100.0	> 30	–	–	–	–	–
N=C(N)NCCC[C@H](N)C(=O)O [Arginine]	14624	0.0	0	0.0	0	0.0	0	100.0	> 30	–	–	–	–	–
NC(=O)C[C@H](N)C(=O)O [Asparagine]	14320	35.9	6791	0.0	0	0.0	0	100.0	–	–	–	–	–	–
N[C@@H](CC(=O)O)C(=O)O [Aspartic acid]	17497	0.0	0	0.0	0	0.0	0	100.0	–	–	–	–	–	–
N[C@@H](CS)C(=O)O [Cysteine]	–	–	–	–	–	0.0	0	100.0	> 30	23851 and 18041	17633 and 6085	58.8% and 30.1%	3767 and 0	8.8% and 0.0%
NC(=O)CC[C@H](N)C(=O)O [Glutamine]	15510	25.9	5779	0.0	0	0.0	0	100.0	> 30	–	–	–	–	–
N[C@@H](CCC(=O)N[C@@H](CS)C(=O)NCC(=O)O)C(=O)O [Glutathione]	16850	37.7	4627	2.3	0	0.0	0	100.0	> 30	–	–	–	–	–
NCC(=O)O [Glycine]	18897	29.3	3657	0.0	0	0.0	0	100.0	> 30	–	–	–	–	–
N[C@@H](Cc1c[nH]cn1)C(=O)O [Histidine]	18949	34.5	8325	0.0	0	0.0	0	100.0	> 30	–	–	–	–	–
O=C(O)[C@@H]1C[C@@H](O)CN1 [Hydroxyproline]	16626	22.4	5048	0.0	0	0.0	0	100.0	> 30	–	–	–	–	–
CC[C@H](C)[C@H](N)C(=O)O [Isoleucine]	14903	7.2	1687	0.0	0	0.0	0	100.0	> 30	–	–	–	–	–
CC(C)C[C@H](N)C(=O)O [Leucine]	13599	27.3	4569	0.0	0	0.0	0	100.0	> 30	–	–	–	–	–
NCCCC[C@H](N)C(=O)O [Lysine]	17400	0.0	0	0.0	0	0.0	0	100.0	> 30	–	–	–	–	–
CSCC[C@H](N)C(=O)O [Methionine]	15213	24.2	3658	0.0	0	0.0	0	100.0	> 30	–	–	–	–	–
N[C@@H](Cc1ccccc1)C(=O)O [Phenylalanine]	18152	62.2	12662	1.7	605	0.0	0	100.0	> 30	–	–	–	–	–
O=C(O)[C@@H]1CCCN1 [Proline]	17907	16.6	3380	0.0	0	0.0	0	100.0	> 30	–	–	–	–	–
N[C@@H](CO)C(=O)O [Serine]	17044	46.6	7928	11.3	0	0.0	0	100.0	> 30	–	–	–	–	–
C[C@@H](O)[C@H](N)C(=O)O [Threonine]	17711	47.3	8436	2.6	904	0.0	0	100.0	> 30	–	–	–	–	–
